Results as given in PubChem BioAssay AID1195 (EPA DSSTox, 2008).

System: human maximum recommended daily dose, FDA database
Experiment: DSSTox (FDAMDD) FDA Maximum (Recommended) Daily Dose Database
Conditions: active compounds read low
Text: The Food and Drug Administration (FDA) Center for Drug Evaluation and Research, Office of Pharmaceutical Science, Informatics and Computational Safety Analysis Staff's Maximum Recommended Daily Dose (FDAMDD) database contains values for over 1200 pharmaceuticals listed in Martindale: The Extra Pharmacopoeia (1973, 1983, and 1993) and The Physicians' Desk Reference (1995 and 1999). Some classes of chemicals were excluded from the FDAMDD database due to their unsuitability for most QSAR modeling programs. These were inorganic chemicals, high molecular weight polymers (>5000 Daltons), fibers, salts, mixtures of organic chemicals, and small molecules (<100 Daltons). FDAMDD is the non-proprietary portion of the database that was used in the QSAR analysis reported in the Main Citation. DSSTox FDAMDD has fewer substance records than the original MRDD Source database due to consolidation of partial structures (i.e., complexed entities) into a single record and elimination of duplicate entries. DSSTox FDAMDD also differs from the MRDD Source database in presenting complete structural information pertaining to the actual salt or complexed form corresponding to the listed ChemicalName and CASRN. According to the Source authors, there are a number of cases where multiple related forms or derivatives of a drug were listed as separate records but were assumed to fall under the same clinical toxicity assessment and, therefore, assigned the same Dose_MRDD_mg activity value. For the DSSTox FDAMDD, we have labeled these derivatives in the ChemClass_MRDD_grouping field and provide their counts in the ChemicalReplicateCount field to highlight their special nature.
Maximum recommended daily dose (or maximum recommended therapeutic dose) values were determined from pharmaceutical clinical trials that employed an oral route of exposure and daily treatments, usually for 3-12 months. Drugs were given as single or divided dose treatment regimens to achieve desired pharmacological effects. Roughly 5% of the pharmaceuticals in the FDAMDD data file were antineoplastics and anesthetics and were administered intravenously and/or intramuscularly. When separate MRDDs were reported for different routes of exposure, only the oral MRDD was included in the data file and only MRDD values reported for the average adult patient were used. Pharmaceuticals that are administered orally are usually tested over a limited range of doses and have MRDDs reported as mg/day. The mg/day unit was converted to mg/kg-body weight (bw)/day based upon an average adult weighing 60 kg. In contrast, the dose unit for most antineoplastic drug MRDDs is reported as mg/m2 which was converted to mg/kg-bw/day using the formula mg/kg-bw/day = mg/m2/37 for an average adult. Additionally, a few drugs had MRDDs reported in parts per million (ppm) which were converted to mg/kg-bw/day on the basis that 1000 ppm equals 25 mg/kg-bw/day for an average 60 kg adult. Activity Score is mapping of LOG10(1/Dose_MRDD_mmol) spanning activity range [MIN, MAX] onto Integer 1-100 Activity range, where 100 is highest potency and 1 is lowest potency: ActivityScore = 100 * INTEGER[(LOGINV_MRDD_mmol - MIN)/(MAX […] MIN)]. Activity Outcome is "active" for all substances, since Dose_MRDD_mmol is reported for all substances.

[1] = TherapeuticCategory: skeletal muscle relaxant
[2] = TherapeuticCategory: antihistaminic
[3] = TherapeuticCategory: topical anesthetic
[4] = TherapeuticCategory: antibacterial
[5] = TherapeuticCategory: antidepressant

**Q.** Which maximum recommended daily dose (mmol/kg-bw/day) [1] does the source give for `COc1ccc2cc1Oc1cc3c(cc1OC)CC[N+](C)(C)[C@H]3Cc1ccc(cc1)Oc1c(OC)c(OC)cc3c1[C@@H](C2)[N+](C)(C)CC3` here?
**A.** 0.000441

**Q.** With `COCCOC(=O)C1=C(C)NC(C)=C(C(=O)OC(C)C)C1c1cccc([N+](=O)[O-])c1` (configuration not stated) as the compound, how does the maximum recommended daily dose (mmol/kg-bw/day) (TherapeuticCategory: cerebral vasodilator) read?
**A.** 0.0143

**Q.** With `CC(C)N=C(N)/N=C(\N)Nc1ccc(Cl)cc1` as the compound, how does the maximum recommended daily dose (mmol/kg-bw/day) (TherapeuticCategory: antimalarial) read?
**A.** 0.0131

**Q.** `C=CCN1CC[C@]23c4c5ccc(O)c4O[C@H]2[C@@H](O)C=C[C@H]3[C@H]1C5` was tested. Which maximum recommended daily dose (mmol/kg-bw/day) (TherapeuticCategory: narcotic antagonist) did it give?
**A.** 0.00214

**Q.** With `COc1ccc(CC2c3cc(OC)c(OC)cc3CC[N+]2(C)CCC(=O)OCCCCCOC(=O)CC[N+]2(C)CCc3cc(OC)c(OC)cc3C2Cc2ccc(OC)c(OC)c2)cc1OC` (configuration not stated) as the compound, how does the maximum recommended daily dose (mmol/kg-bw/day) [1] read?
**A.** 0.000402

**Q.** How did the maximum recommended daily dose (mmol/kg-bw/day) (TherapeuticCategory: analgesic, anti inflammatory) turn out when `CC(C(=O)O)c1ccc2oc(-c3ccc(Cl)cc3)nc2c1` (configuration not stated) was run?
**A.** 0.0331

**Q.** `NS(=O)(=O)c1cc2c(cc1Cl)NC=NS2(=O)=O` was tested. Which maximum recommended daily dose (mmol/kg-bw/day) (TherapeuticCategory: diuretic) did it give?
**A.** 0.113

**Q.** How did the maximum recommended daily dose (mmol/kg-bw/day) [2] turn out when `CC(CN(C)C)CN1c2ccccc2S(=O)(=O)c2ccccc21` (configuration not stated) was run?
**A.** 0.00202

**Q.** Which maximum recommended daily dose (mmol/kg-bw/day) (TherapeuticCategory: antihypertensive, antianginal) does the source give for `CCOC(=O)C1=C(C)NC(C)=C(C(=O)OC)C1c1cccc(Cl)c1Cl` (configuration not stated) here?
**A.** 0.000867

**Q.** How did the maximum recommended daily dose (mmol/kg-bw/day) [3] turn out when `CC(C)COC(=O)c1ccc(N)cc1` was run?
**A.** 0.0345

**Q.** Which maximum recommended daily dose (mmol/kg-bw/day) [4] does the source give for `NC[C@@H]1O[C@H](O[C@H]2[C@@H](O)[C@H](O[C@@H]3[C@@H](O)[C@H](N)C[C@H](N)[C@H]3O[C@H]3O[C@H](CO)[C@@H](O)C[C@H]3N)O[C@@H]2CO)[C@H](N)[C@@H](O)[C@@H]1O[C@H]1O[C@H](CO)[C@@H](O)[C@H](O)[C@@H]1O` here?
**A.** 0.0219

**Q.** For `CCOC(=O)c1ccc(N)cc1`, which maximum recommended daily dose (mmol/kg-bw/day) [3] is on record?
**A.** 0.00726

**Q.** Which maximum recommended daily dose (mmol/kg-bw/day) (TherapeuticCategory: anticholinergic) does the source give for `CC[N+](CC)(CC)CCC(O)(c1ccccc1)C1CCCCC1` (configuration not stated) here?
**A.** 0.00941

**Q.** For `CC(C)(C)c1ccc(C(O)CCCN2CCC(C(O)(c3ccccc3)c3ccccc3)CC2)cc1` (configuration not stated), which maximum recommended daily dose (mmol/kg-bw/day) [2] is on record?
**A.** 0.00424

**Q.** How did the maximum recommended daily dose (mmol/kg-bw/day) (TherapeuticCategory: glucocorticoid) turn out when `CC(=O)OCC(=O)[C@@]1(O)[C@H](C)C[C@H]2[C@@H]3C[C@H](F)C4=CC(=O)C=C[C@]4(C)[C@H]3[C@@H](O)C[C@@]21C` was run?
**A.** 0.000921

**Q.** `COc1cccc(OC)c1C(=O)N[C@@H]1C(=O)N2[C@@H]1SC(C)(C)[C@@H]2C(=O)O` was tested. Which maximum recommended daily dose (mmol/kg-bw/day) [4] did it give?
**A.** 0.526

**Q.** With `CCNCC(O)c1cccc(O)c1` (configuration not stated) as the compound, how does the maximum recommended daily dose (mmol/kg-bw/day) (TherapeuticCategory: antihypotensive) read?
**A.** 0.0046

**Q.** `CN(C)[C@@H]1C(=O)C(C(N)=O)=C(O)[C@@]2(O)C(=O)C3=C(O)c4c(O)cccc4[C@@](C)(O)[C@H]3C[C@@H]12` was tested. Which maximum recommended daily dose (mmol/kg-bw/day) (TherapeuticCategory: antiamebic, antibacterial, antirickettsial) did it give?
**A.** 0.0749

**Q.** With `CN1CCN2c3ccccc3Cc3ccccc3C2C1` (configuration not stated) as the compound, how does the maximum recommended daily dose (mmol/kg-bw/day) [5] read?
**A.** 0.00567

**Q.** `C[C@]12CC[C@@H]3c4ccc(OC(=O)Cc5ccc(N(CCCl)CCCl)cc5)cc4CC[C@H]3[C@@H]1CC[C@@H]2OC(=O)Cc1ccc(N(CCCl)CCCl)cc1` was tested. Which maximum recommended daily dose (mmol/kg-bw/day) (TherapeuticCategory: estrogen) did it give?
**A.** 0.0211

**Q.** Which maximum recommended daily dose (mmol/kg-bw/day) (TherapeuticCategory: antipsychotic) does the source give for `CN1CCCCC1CCN1c2ccccc2Sc2ccc(S(C)=O)cc21` (configuration not stated) here?
**A.** 0.0129

**Q.** For `Clc1ccc2c(c1)C(N1CCNCC1)=Nc1ccccc1O2`, which maximum recommended daily dose (mmol/kg-bw/day) [5] is on record?
**A.** 0.0319

**Q.** Which maximum recommended daily dose (mmol/kg-bw/day) [4] does the source give for `CO[C@@H]1[C@@H](O[C@@H]2O[C@H](C)[C@@H](O[C@H]3C[C@@](C)(O)[C@@H](O)[C@H](C)O3)[C@H](N(C)C)[C@H]2O)[C@@H](CC=O)C[C@@H](C)[C@@H](O[C@@H]2CC[C@H](N(C)C)[C@@H](C)O2)/C=C/C=C/C[C@@H](C)OC(=O)C[C@H]1OC(C)=O` here?
**A.** 0.0754

**Q.** For `CN(CCO)CC(O)Cn1cnc2c1c(=O)n(C)c(=O)n2C` (configuration not stated) (tested in a mixture with another compound), which maximum recommended daily dose (mmol/kg-bw/day) (TherapeuticCategory: peripheral vasodilator) is on record?
**A.** 0.0575

**Q.** With `CN(C)c1nc(N(C)C)nc(N(C)C)n1` as the compound, how does the maximum recommended daily dose (mmol/kg-bw/day) (TherapeuticCategory: antineoplastic) read?
**A.** 0.0257

**Q.** Which maximum recommended daily dose (mmol/kg-bw/day) (TherapeuticCategory: anthelmintic) does the source give for `CN1CCCN=C1/C=C/c1cccs1` here?
**A.** 0.0969

**Q.** Which maximum recommended daily dose (mmol/kg-bw/day) (TherapeuticCategory: antihypertensive, antianginal, antiarrhythmic) does the source give for `CC(C)NCC(O)COc1ccc(CC(N)=O)cc1` (configuration not stated) here?
**A.** 0.0125
